Assays:
Assay type in all cases: in vivo
Barnyardgrass [1] = experiment: Pre-emergent herbicidal activity (Table II); conditions: 2-3 weeks
How it was run: (§1)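 Treated soil cover layer (known amount of active ingredient, solvent or wettable powder) applied over seeds/propagules in pans. Greenhouse bench, watered from below; injury rated at ~2-3 weeks.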

Canada Thistle = experiment: Pre-emergent herbicidal activity (Table II); conditions: 2-3 weeks
How it was run: as §1

Cocklebur [2] = experiment: Pre-emergent herbicidal activity (Table II); conditions: 2-3 weeks
How it was run: as §1

Downy Brome [3] = experiment: Pre-emergent herbicidal activity (Table II); conditions: 2-3 weeks
How it was run: as §1

Johnsongrass = experiment: Pre-emergent herbicidal activity (Table II); conditions: 2-3 weeks
How it was run: as §1

Lambsquarters [4] = experiment: Pre-emergent herbicidal activity (Table II); conditions: 2-3 weeks
How it was run: as §1

Morningglory [5] = experiment: Pre-emergent herbicidal activity (Table II); conditions: 2-3 weeks
How it was run: as §1

Quackgrass = experiment: Pre-emergent herbicidal activity (Table II); conditions: 2-3 weeks
How it was run: as §1

Smartweed [6] = experiment: Pre-emergent herbicidal activity (Table II); conditions: 2-3 weeks
How it was run: as §1

Velvetleaf [7] = experiment: Pre-emergent herbicidal activity (Table II); conditions: 2-3 weeks
How it was run: as §1

Yellow Nutsedge = experiment: Pre-emergent herbicidal activity (Table II); conditions: 2-3 weeks
How it was run: as §1

Barnyardgrass [8] = experiment: Pre-emergent herbicidal activity (Table III)
How it was run: (§2)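 Treated cover soil over seeded pans; sub-irrigated greenhouse culture; fixed-scale injury rating after ~2-3 weeks.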

Cocklebur [9] = experiment: Pre-emergent herbicidal activity (Table III)
How it was run: as §2

Crabgrass = experiment: Pre-emergent herbicidal activity (Table III)
How it was run: as §2

Downy Brome [10] = experiment: Pre-emergent herbicidal activity (Table III)
How it was run: as §2

Hemp Sesbania = experiment: Pre-emergent herbicidal activity (Table III)
How it was run: as §2

Lambsquarters [11] = experiment: Pre-emergent herbicidal activity (Table III)
How it was run: as §2

Morningglory [12] = experiment: Pre-emergent herbicidal activity (Table III)
How it was run: as §2

Panicum = experiment: Pre-emergent herbicidal activity (Table III)
How it was run: as §2

Rice = experiment: Pre-emergent herbicidal activity (Table III)
How it was run: as §2

Smartweed [13] = experiment: Pre-emergent herbicidal activity (Table III)
How it was run: as §2

Sorghum = experiment: Pre-emergent herbicidal activity (Table III)
How it was run: as §2

Soybean = experiment: Pre-emergent herbicidal activity (Table III)
How it was run: as §2

Sugarbeet = experiment: Pre-emergent herbicidal activity (Table III)
How it was run: as §2

Velvetleaf [14] = experiment: Pre-emergent herbicidal activity (Table III)
How it was run: as §2

Wheat = experiment: Pre-emergent herbicidal activity (Table III)
How it was run: as §2

Wild Buckwheat = experiment: Pre-emergent herbicidal activity (Table III)
How it was run: as §2

Measured: Herbicidal rating
Further: ranges in brackets are in %.

CC1=C(N(Cn2c(=O)sc3ccccc32)C(=O)CCl)CCCC1 [Example 10, N--[(2-oxo-3(2H)--benzothiazolyl)methyl]-N--(2-methyl-1-cyclohexen-1-yl)-2-chloro-amide]
0 (0-24): Canada Thistle; 5.6 kg/ha | Canada Thistle; 11.2 kg/ha | Cocklebur [2]; 5.6 kg/ha | Cocklebur [2]; 11.2 kg/ha | Johnsongrass; 5.6 kg/ha | Johnsongrass; 11.2 kg/ha | Lambsquarters [4]; 5.6 kg/ha | Lambsquarters [4]; 11.2 kg/ha | Quackgrass; 11.2 kg/ha | Smartweed [6]; 5.6 kg/ha | Smartweed [6]; 11.2 kg/ha | Velvetleaf [7]; 5.6 kg/ha | Velvetleaf [7]; 11.2 kg/ha | Cocklebur [9]; 0.056 kg/ha | Cocklebur [9]; 0.28 kg/ha | Cocklebur [9]; 1.12 kg/ha | Cocklebur [9]; 5.6 kg/ha | Downy Brome [10]; 0.056 kg/ha | Downy Brome [10]; 0.28 kg/ha | Downy Brome [10]; 1.12 kg/ha | Hemp Sesbania; 0.056 kg/ha | Hemp Sesbania; 0.28 kg/ha | Hemp Sesbania; 1.12 kg/ha | Hemp Sesbania; 5.6 kg/ha | Lambsquarters [11]; 0.28 kg/ha | Morningglory [12]; 0.056 kg/ha | Morningglory [12]; 0.28 kg/ha | Morningglory [12]; 1.12 kg/ha | Morningglory [12]; 5.6 kg/ha | Panicum; 0.056 kg/ha | Panicum; 0.28 kg/ha | Panicum; 1.12 kg/ha | Rice; 0.056 kg/ha | Rice; 0.28 kg/ha | Rice; 1.12 kg/ha | Smartweed [13]; 0.056 kg/ha | Smartweed [13]; 0.28 kg/ha | Sorghum; 0.056 kg/ha | Sorghum; 0.28 kg/ha | Sorghum; 1.12 kg/ha | Sorghum; 5.6 kg/ha | Soybean; 0.056 kg/ha | Soybean; 0.28 kg/ha | Soybean; 1.12 kg/ha | Soybean; 5.6 kg/ha | Sugarbeet; 0.056 kg/ha | Sugarbeet; 0.28 kg/ha | Sugarbeet; 1.12 kg/ha | Sugarbeet; 5.6 kg/ha | Velvetleaf [14]; 0.056 kg/ha | Velvetleaf [14]; 0.28 kg/ha | Velvetleaf [14]; 1.12 kg/ha | Velvetleaf [14]; 5.6 kg/ha | Wheat; 0.056 kg/ha | Wheat; 0.28 kg/ha | Wheat; 1.12 kg/ha | Wild Buckwheat; 0.056 kg/ha | Wild Buckwheat; 0.28 kg/ha | Wild Buckwheat; 1.12 kg/ha | Wild Buckwheat; 5.6 kg/ha
1 (25-49): Morningglory [5]; 11.2 kg/ha | Yellow Nutsedge; 5.6 kg/ha | Yellow Nutsedge; 11.2 kg/ha | Lambsquarters [11]; 0.056 kg/ha | Lambsquarters [11]; 1.12 kg/ha | Smartweed [13]; 1.12 kg/ha | Wheat; 5.6 kg/ha
3 (75-100): Barnyardgrass [1]; 5.6 kg/ha | Barnyardgrass [1]; 11.2 kg/ha | Downy Brome [3]; 5.6 kg/ha | Downy Brome [3]; 11.2 kg/ha | Morningglory [5]; 5.6 kg/ha | Quackgrass; 5.6 kg/ha | Barnyardgrass [8]; 0.056 kg/ha | Barnyardgrass [8]; 0.28 kg/ha | Barnyardgrass [8]; 5.6 kg/ha | Crabgrass; 0.056 kg/ha | Crabgrass; 0.28 kg/ha | Crabgrass; 1.12 kg/ha | Crabgrass; 5.6 kg/ha | Lambsquarters [11]; 5.6 kg/ha | Rice; 5.6 kg/ha
2 (50-74): Barnyardgrass [8]; 1.12 kg/ha | Downy Brome [10]; 5.6 kg/ha | Panicum; 5.6 kg/ha | Smartweed [13]; 5.6 kg/ha

N--[(2-oxo-3(2H)--benzothiazolyl)methyl]-N--(2-ethyl-6-methyl-1-cyclohexen-1-yl)-2-chloro-acetamide, mixed with its -N--[(2-oxo-3(2H)--benzothiazolyl)methyl]-N--(2-methyl-6-ethyl-1-cyclohexen-1-yl)-2-chloroacetamide [Example 4]
0 (0-24): Cocklebur [2]; 5.6 kg/ha | Cocklebur [2]; 11.2 kg/ha | Johnsongrass; 5.6 kg/ha | Morningglory [5]; 5.6 kg/ha | Morningglory [5]; 11.2 kg/ha | Quackgrass; 5.6 kg/ha | Quackgrass; 11.2 kg/ha | Smartweed [6]; 5.6 kg/ha | Smartweed [6]; 11.2 kg/ha | Velvetleaf [7]; 5.6 kg/ha | Velvetleaf [7]; 11.2 kg/ha | Yellow Nutsedge; 5.6 kg/ha | Yellow Nutsedge; 11.2 kg/ha | Barnyardgrass [8]; 0.28 kg/ha | Cocklebur [9]; 1.12 kg/ha | Downy Brome [10]; 0.28 kg/ha | Downy Brome [10]; 1.12 kg/ha | Downy Brome [10]; 5.6 kg/ha | Hemp Sesbania; 0.28 kg/ha | Hemp Sesbania; 1.12 kg/ha | Lambsquarters [11]; 0.28 kg/ha | Morningglory [12]; 1.12 kg/ha | Panicum; 0.28 kg/ha | Panicum; 1.12 kg/ha | Rice; 0.28 kg/ha | Rice; 1.12 kg/ha | Smartweed [13]; 0.28 kg/ha | Sorghum; 0.28 kg/ha | Sorghum; 1.12 kg/ha | Sorghum; 5.6 kg/ha | Soybean; 0.28 kg/ha | Soybean; 1.12 kg/ha | Soybean; 5.6 kg/ha | Sugarbeet; 1.12 kg/ha | Velvetleaf [14]; 0.28 kg/ha | Velvetleaf [14]; 1.12 kg/ha | Velvetleaf [14]; 5.6 kg/ha | Wheat; 0.28 kg/ha | Wheat; 1.12 kg/ha | Wheat; 5.6 kg/ha | Wild Buckwheat; 0.28 kg/ha | Wild Buckwheat; 1.12 kg/ha | Wild Buckwheat; 5.6 kg/ha
1 (25-49): Canada Thistle; 5.6 kg/ha | Downy Brome [3]; 5.6 kg/ha | Downy Brome [3]; 11.2 kg/ha | Lambsquarters [4]; 5.6 kg/ha | Morningglory [12]; 0.28 kg/ha | Morningglory [12]; 5.6 kg/ha | Rice; 5.6 kg/ha | Sugarbeet; 0.28 kg/ha | Sugarbeet; 5.6 kg/ha
3 (75-100): Barnyardgrass [1]; 5.6 kg/ha | Barnyardgrass [1]; 11.2 kg/ha | Johnsongrass; 11.2 kg/ha | Lambsquarters [4]; 11.2 kg/ha | Barnyardgrass [8]; 1.12 kg/ha | Barnyardgrass [8]; 5.6 kg/ha | Cocklebur [9]; 5.6 kg/ha | Crabgrass; 1.12 kg/ha | Crabgrass; 5.6 kg/ha | Hemp Sesbania; 5.6 kg/ha | Lambsquarters [11]; 5.6 kg/ha | Smartweed [13]; 1.12 kg/ha | Smartweed [13]; 5.6 kg/ha
2 (50-74): Canada Thistle; 11.2 kg/ha | Crabgrass; 0.28 kg/ha | Lambsquarters [11]; 1.12 kg/ha | Panicum; 5.6 kg/ha

— patent US4731451A, “N-((2-oxo-3(2H)benzothiazolyl)methyl)-2-chloroacetanilides” (Monsanto Company, priority 1980, dated 1988)
